According to US20250257048A1, “METHODS OF PREPARING AN ISOINDOLINONE DERIVATIVE AND CRYSTAL FORMS THEREOF” (Monte Rosa Therapeutics, Inc., priority 2022, published 2025):
Several values for one entry are separate records, joined by “and”; a condition that tells them apart may be missing. Equal entries are not always repeated. Where two headings read alike, the source gives them in different places.

Key:
[1] = target: Full length wild-type cereblon CRBN (Homo sapiens (Human), UniProt Q96SW2); test: fluorescence polarization (FP) homogeneous assay, cereblon binding; settings: CRBN 80.0 nM, probe 5 nM, FP read after 12 hours, read-out: rFP IC50
Full length wild-type cereblon CRBN, sequence (Q96SW2 whole entry): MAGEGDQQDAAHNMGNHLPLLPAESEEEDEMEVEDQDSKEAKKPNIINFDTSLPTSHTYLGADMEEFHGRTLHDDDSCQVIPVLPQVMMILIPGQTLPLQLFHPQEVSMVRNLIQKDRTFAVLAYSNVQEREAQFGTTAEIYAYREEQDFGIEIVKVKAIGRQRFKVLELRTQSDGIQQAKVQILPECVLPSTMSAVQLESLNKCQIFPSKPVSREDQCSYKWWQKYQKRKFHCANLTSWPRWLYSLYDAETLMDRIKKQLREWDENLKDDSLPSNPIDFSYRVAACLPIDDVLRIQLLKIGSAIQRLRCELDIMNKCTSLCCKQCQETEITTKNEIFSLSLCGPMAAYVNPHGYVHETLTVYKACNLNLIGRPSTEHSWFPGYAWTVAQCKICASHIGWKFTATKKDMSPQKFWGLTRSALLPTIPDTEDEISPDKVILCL
Procedure: Compound activity was monitored in a fluorescence polarization (FP) homogeneous assay using 1-[5-({2-[2-(2-{[2-(2,6-dioxopiperidin-3-yl)-1,3-dioxo-2,3-dihydro-1H-isoindol-4-yl]oxy}acetamido) ethoxy]ethyl}carbamoyl) pentyl]-3,3-dimethyl-2-[(1E,3E)-5-[(2E)-1,3,3-trimethyl-5-sulfo-2,3-dihydro-1H-indol-2-ylidene]penta-1,3-dien-1-yl]-3H-indol-1-ium-5-sulfonate as a fluorescent probe. Unless otherwise stated, all reagents were purchased from Sigma Aldrich. Enzymatic reactions were conducted in Perkin-Elmer Black 384 well ProxiPlate Plus (catalogue no. 6008269) in 10 μL total volume. Full length wild-type cereblon CRBN (80.0 nM, 10 μL) was incubated in assay buffer containing 20 mM HEPES (pH 8.0), […], 0.5 mM TCEP and 0.05% Tween 20 in the presence or absence of compound (300 nL). Inhibitors were stored as 10 mM DMSO stocks in an inert environment (low humidity, dark, low oxygen, room temperature) using the Storage Pod System. Compounds and DMSO were dispensed using the Echo E5XX (Labcyte Inc. USA) to give concentrations from 300 to 0.937 or 3000 to 9.3 nM in a 12 data point curve. […] FP was measured after a period of 12 hours using a Pherastar plate reader (BMG Labtech, Germany) exciting at 590 nm and measuring the amount of parallel and perpendicular light at 675 nm. […]

GSPT1 = GSPT1 (Homo sapiens (Human), UniProt P15170+Q96SW2); test: immunofluorescence assay for GSPT1 degradation in CAL-51 cells; format: cell-based; settings: 6 hours treatment
GSPT1, sequence (P15170 whole entry): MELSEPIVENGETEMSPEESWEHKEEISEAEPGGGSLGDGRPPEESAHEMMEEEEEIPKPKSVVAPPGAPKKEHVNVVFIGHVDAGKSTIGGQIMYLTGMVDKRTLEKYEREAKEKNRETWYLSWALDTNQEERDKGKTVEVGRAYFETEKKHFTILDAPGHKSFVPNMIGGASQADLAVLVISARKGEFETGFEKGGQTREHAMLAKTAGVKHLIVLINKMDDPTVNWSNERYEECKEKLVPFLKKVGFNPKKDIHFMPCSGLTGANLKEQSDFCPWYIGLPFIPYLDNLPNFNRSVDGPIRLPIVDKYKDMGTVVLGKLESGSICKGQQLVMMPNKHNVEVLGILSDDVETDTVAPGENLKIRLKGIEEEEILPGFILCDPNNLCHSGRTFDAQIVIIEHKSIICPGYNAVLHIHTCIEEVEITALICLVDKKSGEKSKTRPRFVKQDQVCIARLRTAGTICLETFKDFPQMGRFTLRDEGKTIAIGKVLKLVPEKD
GSPT1, sequence (Q96SW2 whole entry): as the sequence (Q96SW2 whole entry) above
GSPT1, sequence (Q16531 whole entry partner): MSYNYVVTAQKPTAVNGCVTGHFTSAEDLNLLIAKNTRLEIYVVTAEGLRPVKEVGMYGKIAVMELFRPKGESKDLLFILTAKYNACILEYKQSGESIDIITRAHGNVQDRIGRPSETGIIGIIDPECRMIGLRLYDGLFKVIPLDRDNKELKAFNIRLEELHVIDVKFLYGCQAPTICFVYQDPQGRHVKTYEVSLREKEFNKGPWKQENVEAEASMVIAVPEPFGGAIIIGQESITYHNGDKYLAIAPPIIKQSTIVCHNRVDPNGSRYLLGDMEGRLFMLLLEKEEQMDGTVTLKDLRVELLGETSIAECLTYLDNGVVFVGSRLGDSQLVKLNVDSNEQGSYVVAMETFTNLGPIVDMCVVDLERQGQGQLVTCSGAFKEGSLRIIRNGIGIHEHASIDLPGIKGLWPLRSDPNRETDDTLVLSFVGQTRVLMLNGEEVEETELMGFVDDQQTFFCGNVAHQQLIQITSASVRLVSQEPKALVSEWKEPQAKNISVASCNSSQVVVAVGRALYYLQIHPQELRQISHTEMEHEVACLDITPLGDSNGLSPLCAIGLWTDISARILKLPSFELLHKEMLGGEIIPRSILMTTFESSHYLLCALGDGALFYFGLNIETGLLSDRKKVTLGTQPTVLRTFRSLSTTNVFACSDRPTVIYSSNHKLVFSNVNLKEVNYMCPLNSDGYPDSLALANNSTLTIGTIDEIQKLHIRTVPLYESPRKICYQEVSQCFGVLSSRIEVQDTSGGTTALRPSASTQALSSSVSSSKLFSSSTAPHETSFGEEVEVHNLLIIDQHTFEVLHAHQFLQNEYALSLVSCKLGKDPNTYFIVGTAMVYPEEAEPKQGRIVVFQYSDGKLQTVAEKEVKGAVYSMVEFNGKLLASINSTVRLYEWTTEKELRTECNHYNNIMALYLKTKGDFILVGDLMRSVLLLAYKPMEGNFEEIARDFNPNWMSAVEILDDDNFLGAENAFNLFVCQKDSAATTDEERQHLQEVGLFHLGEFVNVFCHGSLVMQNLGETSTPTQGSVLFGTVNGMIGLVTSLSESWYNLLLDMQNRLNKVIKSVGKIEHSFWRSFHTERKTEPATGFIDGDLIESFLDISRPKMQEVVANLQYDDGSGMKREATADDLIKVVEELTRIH
Procedure: The representative compounds were tested in an immunofluorescence assay for their activity to bind to degrade GSPT1. CAL-51 cells were purchased from DSMZ (cat. Number ACC302), sub-cultured in 90% Dulbecco's MEM (4.5 g/L glucose, Gibco 11965)+10% heat inactivated FBS (BioConcept, 2-01F136I) and incubated at 37° C., 5% CO2. For the assay, imaging microtiterplate Cell Carrier 96 Ultra (Perkin Elmer 6055302) were pre-coated with Fibronectin (Sigma F085, 30 μl at 0.2 μg/ml) in PBS (100 μl, Gibco 14190) for 45 min at room temperature, rinsed with PBS and CAL-51 cells (30K cells/well) were plated and let to adhere overnight. Cells were treated with compounds typically using a serial dilution ranging from 30 μM to 0.1 nM for 6 hours. […]
Primary antibody (human GSPT1, Sigma HPA052488) was diluted in blocking buffer (dil.1/300, 35 μl/well) and incubated with the cells overnight at 4° C. […] Fluorescence intensity of Alexa-Fluor 488 (GSPT1), Alexa-Fluor 647 (Actin) and DAPI (Nucleus) were measured. […] The outline of the cells was determined analogously from the sum of the normalized, smoothed DAPI and Actin channel, starting from each nucleus.
The Alexa-Fluor 488 (GSPT1) signal intensity in each cell was finally measured, in order to obtain a Mean intensity per cell. GSPT1 degradation (DC50) was calculated after normalization to controls and data import in CDD vault Database, using non-linear regression. […]

[2] = solubility of crystalline Form I in media (water) at 37° C.; format: physicochemical
Procedure: Solubility of crystalline Form I was evaluated by weighing about 10 mg of crystalline Form I into 2 mL of media, and then stirring the suspension at 37° C. for 24 hours. At 1, 4 and 24 hours, the suspensions were filtered, and the filtrates were analyzed by HPLC and pH.

[3] = solid stability at 40° C./75% RH and 25° C./60% RH for 7 days (HPLC purity, XRPD); format: physicochemical; settings: for physical and chemical stability: 25° C. 60% RH and 40° C. 75% RH for 7 days
Procedure: Solid stability was evaluated at 40° C./75RH and 25° C./60% RH for 7 days.

[4] = hygroscopicity of crystalline form; format: physicochemical

O=C1CCC(N2Cc3ccc(COC(=O)Nc4cc(OC(F)(F)F)ccc4F)cc3C2=O)C(=O)N1 (centres unmarked) [Compound 145, (2-(2,6-dioxopiperidin-3-yl)-3-oxoisoindolin-5-yl)methyl (2-fluoro-5-(trifluoromethoxy)phenyl)carbamate]
IC50 [1]: 500 to 1100 nM
DC50 (GSPT1): 30 to 300 nM

O=C1CCC(N2Cc3ccc(COC(=O)Nc4cc(OC(F)(F)F)ccc4F)cc3C2=O)C(=O)N1 (centres unmarked) [Form I, (2-(2,6-dioxopiperidin-3-yl)-3-oxoisoindolin-5-yl)methyl (2-fluoro-5-(trifluoromethoxy)phenyl)carbamate]
crystal form of remained solid in all media ([2]; 37° C., after 1, 4 and 24 hours, XRPD (FIG. 5)): unchanged
solubility ([2]; aqueous solution, 37 °C, aqueous buffer, thermodynamic from solid, about pH 6 to 7, read-out: solubility in an aqueous solution): < 1 µg/mL
pH(24 h) ([2]; pH of filtrate, H2O, 37° C., 24 h): 6.35 and 6.61 and 6.41
XRPD(24 h) ([2]; remained solid, H2O, 37° C., 24 h): Form I
solubility at 1 h ([2]; water, 37 °C, thermodynamic from solid, H2O, 1 h, triplicate H2O-1 to H2O-3): < 1 µg/mL
solubility at 4 h ([2]; water, 37 °C, thermodynamic from solid, H2O, 4 h, triplicate H2O-1 to H2O-3): < 1 µg/mL
solubility at 24 h ([2]; water, 37 °C, thermodynamic from solid, H2O, 24 h, triplicate H2O-1 to H2O-3): < 1 µg/mL
solubility ([2]; water, 37 °C, water, thermodynamic from solid, read-out: solubility in water): < 1 µg/mL
physical and chemical stability [3]: good physical and chemical stability
physical and chemical stability ([3]; listed as Crystalline Form I): physically and chemically stable
physical and chemical stability ([3]; listed as crystalline Form I): no obvious degradation nor form change
Purity ([3]; 25° C./60% RH, 1 day): 100%
XRPD ([3]; 25° C./60% RH, 1 day): Form I
Purity ([3]; 25° C./60% RH, 7 day): 100%
XRPD ([3]; 25° C./60% RH, 7 day): Form I
Purity ([3]; 40° C./75% RH, 1 day): 100%
XRPD ([3]; 40° C./75% RH, 1 day): Form I
Purity ([3]; 40° C./75% RH, 7 day): 99.95%
XRPD ([3]; 40° C./75% RH, 7 day): Form I
Purity-T0 ([3]; T0 (day 0), HPLC): 100%
hygroscopicity [4]: nonhydroscopic
